Values of other authors in US20210137919A1, “PHARMACEUTICAL FORMULATIONS, METHOD FOR PRODUCING A PHARMACEUTICAL FORMULATION, AND MEDICAMENT COMPRISING SAME” (SmaWa GmbH, priority 2018, published 2021).

solubility in water: 2 to 3.2 µg/mL
SMILES: CN1CC(=O)N2[C@H](c3ccc4c(c3)OCO4)c3[nH]c4ccccc4c3C[C@@H]2C1=O [tadalafil]
